Laboratory results from patent US9096560B2, “5-heterocyclylalkyl-3-hydroxy-2-phenylcyclopent-2-enones as herbicides” (Syngenta Limited, priority 2008, dated 2015).

Legend:
Type in all cases: in vivo
Lolium perenne (LOLPE) [1] = test: Example B pre-emergence herbicidal test, LOLPE; settings: Lolium perenne, 312 h, rate 250 g/ha, evaluated after 13 days, 100=total damage to plant, 0=no damage to plant
Outline: (§1)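 Plants were rated 13 days after treatment, 0 = no damage to 100 = total damage. They were grown in a glasshouse at 24/16 °C, 14 h light, 65% humidity and watered twice daily. Pre-emergence spray was applied one day after sowing, formulated in acetone/water 50:50 with 0.5% Tween 20.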

[2] = system: Alopecurus myosuroides (ALOMY); test: Example B pre-emergence herbicidal test, ALOMY; settings: Alopecurus myosuroides, 312 h, rate 250 g/ha, evaluated after 13 days, 100=total damage to plant, 0=no damage to plant
Outline: as §1

[3] = system: Echinochloa crus-galli (ECHCG); test: Example B pre-emergence herbicidal test, ECHCG; settings: Echinochloa crus-galli, 312 h, rate 250 g/ha, evaluated after 13 days, 100=total damage to plant, 0=no damage to plant
Outline: as §1

Avena fatua (AVEFA) [4] = test: Example B pre-emergence herbicidal test, AVEFA; settings: Avena fatua, 312 h, rate 250 g/ha, evaluated after 13 days, 100=total damage to plant, 0=no damage to plant
Outline: as §1

Lolium perenne (LOLPE) [5] = test: Example B post-emergence herbicidal test, LOLPE; settings: Lolium perenne, 312 h, rate 250 g/ha, evaluated after 13 days, scale 0-100, read-out: Post-emergence activity LOLPE (100=total damage to plant; 0=no damage to plant)
Outline: (§2)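 Score: 0 = no damage, 100 = total damage, assessed 13 days post-spray. Plants sprayed 8 days after sowing with aqueous dilution of acetone/water (50:50) formulation containing 0.5% Tween 20.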

[6] = system: Alopecurus myosuroides (ALOMY); test: Example B post-emergence herbicidal test, ALOMY; settings: Alopecurus myosuroides, 312 h, rate 250 g/ha, evaluated after 13 days, scale 0-100, read-out: Post-emergence activity ALOMY (100=total damage to plant; 0=no damage to plant)
Outline: as §2

[7] = system: Echinochloa crus-galli (ECHCG); test: Example B post-emergence herbicidal test, ECHCG; settings: Echinochloa crus-galli, 312 h, rate 250 g/ha, evaluated after 13 days, scale 0-100, read-out: Post-emergence activity ECHCG (100=total damage to plant; 0=no damage to plant)
Outline: as §2

Avena fatua (AVEFA) [8] = test: Example B post-emergence herbicidal test, AVEFA; settings: Avena fatua, 312 h, rate 250 g/ha, evaluated after 13 days, scale 0-100, read-out: Post-emergence activity AVEFA (100=total damage to plant; 0=no damage to plant)
Outline: as §2

Structure (SMILES) | pest or weed control at 250 g/ha (Lolium perenne (LOLPE) [1]) | pest or weed control at 250 g/ha [2] | pest or weed control at 250 g/ha [3] | pest or weed control at 250 g/ha (Avena fatua (AVEFA) [4]) | pest or weed control at 250 g/ha (Lolium perenne (LOLPE) [5]) | pest or weed control at 250 g/ha [6] | pest or weed control at 250 g/ha [7] | pest or weed control at 250 g/ha (Avena fatua (AVEFA) [8])
Cc1cc(C)c(C2C(=O)CC(CC3CCN(C(=O)c4ccc(Cl)cc4Cl)CC3)C2=O)c(C)c1 (centres unmarked) [Compound T71] | 30% | 20% | 10% | 20% | 40% | 30% | 70% | 80%
Cc1cc(C)c(C2C(=O)CC(CC3CCN(C(=O)c4ccccc4C)CC3)C2=O)c(C)c1 (centres unmarked) [Compound T72] | 60% | 30% | 80% | 20% | 80% | 50% | 90% | 80%
Cc1cc(C)c(C2C(=O)CC(CC3CCN(C(=O)c4cccc(Cl)c4)CC3)C2=O)c(C)c1 (centres unmarked) [Compound T73] | 80% | 40% | 80% | 80% | 80% | 90% | 90% | 100%
Cc1cc(C)c(C2C(=O)CC(CC3CCN(C(=O)c4ccc(Cl)c(Cl)c4)CC3)C2=O)c(C)c1 (centres unmarked) [Compound T74] | 30% | 30% | 50% | 20% | 40% | 70% | 100% | 90%
Cc1cc(C)c(C2C(=O)CC(CC3CCN(C(=O)c4ccc(Cl)cc4)CC3)C2=O)c(C)c1 (centres unmarked) [Compound T76] | 60% | 30% | 60% | 20% | 40% | 90% | 90% | 100%
Cc1cc(C)c(C2C(=O)CC(CC3CCN(C(=O)c4ccc(-c5ccccc5)cc4)CC3)C2=O)c(C)c1 (centres unmarked) [Compound T77] | 0% | 0% | 0% | 0% | 40% | 30% | 20% | 40%
Cc1ccc(C(=O)N2CCC(CC3CC(=O)C(c4c(C)cc(C)cc4C)C3=O)CC2)cc1 (centres unmarked) [Compound T78] | 30% | 20% | 30% | 0% | 50% | 40% | 70% | 40%
Cc1cc(C)c(C2C(=O)CC(CC3CCN(C(=O)C(C)(C)C)CC3)C2=O)c(C)c1 (centres unmarked) [Compound T79] | 90% | 60% | 60% | 20% | 60% | 60% | 70% | 80%
Cc1cc(C)c(C2C(=O)CC(CC3CCN(C(=O)C(C)C)CC3)C2=O)c(C)c1 (centres unmarked) [Compound T80] | 100% | 70% | 70% | 70% | 90% | 90% | 80% | 100%
COCC(=O)N1CCC(CC2CC(=O)C(c3c(C)cc(C)cc3C)C2=O)CC1 (centres unmarked) [Compound T81] | 80% | 80% | 60% | 80% | 90% | 90% | 80% | 100%
